Three molecules from patent US10370343B2, “[6,6] Fused bicyclic HDAC8 inhibitors” (FORMA Therapeutics, Inc., priority 2015, dated 2019) can be followed below.

Test [1] addresses T1, Recombinant N-terminal GST tag full-length human HDAC8 (Homo sapiens, UniProt Q9BY41).
T1 construct: Recombinant N-terminal GST tag full-length human HDAC8; purchased SignalChem H90-30G-1000; host or cells: baculovirus in Sf9 insect cells
T1 sequence (Q9BY41 1-377): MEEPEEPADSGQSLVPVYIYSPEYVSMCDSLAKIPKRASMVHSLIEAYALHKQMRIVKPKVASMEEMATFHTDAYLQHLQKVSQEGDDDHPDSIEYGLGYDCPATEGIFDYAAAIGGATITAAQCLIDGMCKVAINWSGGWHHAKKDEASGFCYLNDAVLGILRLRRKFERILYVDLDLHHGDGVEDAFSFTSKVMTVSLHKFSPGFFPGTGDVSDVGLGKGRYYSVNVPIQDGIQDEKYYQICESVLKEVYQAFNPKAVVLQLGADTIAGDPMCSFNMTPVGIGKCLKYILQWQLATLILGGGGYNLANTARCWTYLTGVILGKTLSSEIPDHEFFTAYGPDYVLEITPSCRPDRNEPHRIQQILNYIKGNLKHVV
Nature of the test: HDAC8 probe binding assay, time resolved fluorescence (TRF) format. The conditions noted are these: compounds grouped by IC50 range (Table 2). A digest of the protocol: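 Probe-binding TRF assay using full-length N-GST human HDAC8 expressed in baculovirus-infected Sf9 cells, incubated 16 h at room temperature and read at 340 nm excitation, 485/535 nm emission. Percent inhibition was normalised to no-enzyme and DMSO controls. IC50 was obtained by 4-parameter logistic fit.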

Test [2] addresses T2, Full length human recombinant HDAC8 protein (Homo sapiens, UniProt Q9BY41).
T2 construct: Full length human recombinant HDAC8 protein was expressed in baculoviral system; made in house
T2 sequence (Q9BY41 1-377): T1 sequence (Q9BY41 1-377)
Nature of the test: In vitro histone deacetylase assay: enzymatic HDAC8 electrophoretic mobility shift assay. Conditions: electrophoretic mobility shift assay; enzyme 1 nM; 2 μM fluorescently labeled peptide substrate RHKK(Ac)-NH2; 25° C.; 12 concentrations; read-out: HDAC8 IC50. Format: biochemical. For orientation: Mobility shift assays separate free from complexed probe on a gel.

As usually defined, the IC50 is the concentration at which inhibition is half-maximal. `CC1(C)Oc2ccc(C(=O)NO)cc2N(Cc2nc3cc(Cl)ccc3s2)C1=O` [Compound I-296, 4-((5-chlorobenzo[d]thiazol-2-yl)methyl)-N-hydroxy-2,2-dimethyl-3-oxo-3,4-dihydro-2H-benzo[b][1,4]oxazine-6-carboxamide]: the IC50 in test [1] is 25 to 100 nM; in test [2], less than 25 nM.

With `O=C(NO)c1ccc2c(c1)N(c1ccccc1)C(=O)CO2` [Compound I-357, N-hydroxy-3-oxo-4-phenyl-3,4-dihydro-2H-benzo[b][1,4]oxazine-6-carboxamide], the IC50 in test [1] was 25 to 100 nM; in test [2], 100 to 1000 nM.

Consider `COc1cccc(N2C(=O)COc3ccc(C(=O)NO)cc32)c1` [Compound I-358, N-hydroxy-4-(3-methoxyphenyl)-3-oxo-3,4-dihydro-2H-1,4-benzoxazine-6-carboxamide], for which the IC50 in test [1] and in test [2] was 25 to 100 nM each time.
